Measured values from patent US10477864B2, “Microbiocidal quinoline (thio)carboxamide derivatives” (priority 2016, dated 2019).

How the values were obtained:
[1] = system: Glomerella lagenarium (Colletotrichum lagenarium); assay: Glomerella lagenarium (Colletotrichum lagenarium) / liquid culture (anthracnose); type: cell-based; conditions: Colletotrichum orbiculare; read-out: control of Glomerella lagenarium
Fusarium culmorum [2] = assay: microbe, parasite or virus in culture; type: cell-based; conditions: read-out: control of Fusarium culmorum
[3] = system: Botryotinia fuckeliana (Botrytis cinerea); assay: Botryotinia fuckeliana (Botrytis cinerea) / liquid culture (gray mould); type: cell-based; conditions: 72 h, read-out: control of Botryotinia fuckeliana
Fusarium culmorum [4] = assay: whole plant or invertebrate; type: in vivo; conditions: in Triticum aestivum, read-out: control of Fusarium culmorum
[5] = system: Monographella nivalis (Microdochium nivale); assay: Monographella nivalis (Microdochium nivale) / liquid culture (foot rot cereals); type: cell-based; conditions: 96 h, read-out: control of Monographella nivalis

Structure (SMILES) | inhibition of growth at 200 ppm [1] [%] | inhibition of growth at 200 ppm (Fusarium culmorum [2]) [%] | inhibition of growth at 200 ppm [3] [%] | pest or weed control at 200 ppm (Fusarium culmorum [4]) [%] | inhibition of growth at 200 ppm [5] [%] | melting point [°C]
CC(F)(F)C[C@](C)(Cc1ccccc1)NC(=O)c1cnc2ccccc2c1 [Compound F-25, N-[(1S)-1-benzyl-3,3-difluoro-1-methyl-butyl]quinoline-3-carboxamide] | ≥ 80 | ≥ 80 | ≥ 80 | ≥ 80 | ≥ 80 | 
COCCC(C)(Cc1ccccc1)NC(=O)c1cnc2c(F)cccc2c1 (stereo not drawn) [Compound E-121, N-(1-benzyl-3-methoxy-1-methyl-propyl)-8-fluoro-quinoline-3-carboxamide] |  | ≥ 80 | ≥ 80 |  | ≥ 80 | 
Cc1c(C(=O)NC(C)(Cc2ccccc2)CC(F)(F)F)cnc2c(F)cccc12 (stereo not drawn) [Compound E-90, N-(1-benzyl-3,3,3-trifluoro-1-methyl-propyl)-8-fluoro-4-methyl-quinoline-3-carboxamide] | ≥ 80 | ≥ 80 | ≥ 80 | ≥ 80 |  | 154 to 158
CC(Cc1ccccc1)(CC(F)(F)F)NC(=O)c1cnc2c(F)c(F)ccc2c1 (stereo not drawn) [Compound E-102, N-(1-benzyl-3,3,3-trifluoro-1-methyl-propyl)-7,8-difluoro-quinoline-3-carboxamide] | ≥ 80 | ≥ 80 | ≥ 80 | ≥ 80 |  | 158 to 160
C=C(C)C[C@@](C)(Cc1ccccc1)NC(=O)c1cnc2c(F)cccc2c1 [Compound F-9, N-[(1S)-1-benzyl-1,3-dimethyl-but-3-enyl]-8-fluoro-quinoline-3-carboxamide] | ≥ 80 | ≥ 80 | ≥ 80 | ≥ 80 | ≥ 80 | 
CCOC(OCC)C(C)(Cc1ccccc1)NC(=O)c1cnc2c(F)cccc2c1 (stereo not drawn) [Compound E-116, N-(1-benzyl-2,2-diethoxy-1-methyl-ethyl)-8-fluoro-quinoline-3-carboxamide] |  | ≥ 80 | ≥ 80 |  | ≥ 80 | 
Cc1cccc2ncc(C(=O)NC(C)(Cc3ccccc3)CC(F)(F)F)cc12 (stereo not drawn) [Compound E-86, N-(1-benzyl-3,3,3-trifluoro-1-methyl-propyl)-5-methyl-quinoline-3-carboxamide] | ≥ 80 | ≥ 80 | ≥ 80 | ≥ 80 |  | 101 to 103
C[C@](Cc1ccccc1)(CC(F)F)NC(=O)c1cnc2c(F)cccc2c1 [Compound F-32, N-[(1S)-1-benzyl-3,3-difluoro-1-methyl-propyl]-8-fluoro-quinoline-3-carboxamide] | ≥ 80 | ≥ 80 | ≥ 80 | ≥ 80 | ≥ 80 | 
CC(Cc1ccccc1)(CC(F)(F)Cl)NC(=O)c1cnc2c(F)cccc2c1 (stereo not drawn) [Compound E-97, N-(1-benzyl-3-chloro-3,3-difluoro-1-methyl-propyl)-8-fluoro-quinoline-3-carboxamide] | ≥ 80 | ≥ 80 | ≥ 80 | ≥ 80 | ≥ 80 | 
Cc1c(C(=O)N[C@](C)(Cc2ccccc2)CC(F)(F)F)cnc2c(F)cccc12 [Compound F-30, N-[(1R)-1-benzyl-3,3,3-trifluoro-1-methyl-propyl]-8-fluoro-4-methyl-quinoline-3-carboxamide] | ≥ 80 | ≥ 80 | ≥ 80 |  | ≥ 80 | 
Cc1nc2c(C#N)cccc2cc1C(=O)NC(C)(Cc1ccccc1)CC(F)(F)F (stereo not drawn) [Compound E-113, N-(1-benzyl-3,3,3-trifluoro-1-methyl-propyl)-8-cyano-2-methyl-quinoline-3-carboxamide] | ≥ 80 | ≥ 80 | ≥ 80 | ≥ 80 |  | 136 to 140
CC(C)(F)C[C@@](C)(Cc1ccccc1)NC(=O)c1cnc2c(F)cccc2c1 [Compound F-23, N-[(1R)-1-benzyl-3-fluoro-1,3-dimethyl-butyl]-8-fluoro-quinoline-3-carboxamide] | ≥ 80 | ≥ 80 | ≥ 80 | ≥ 80 | ≥ 80 | 
CC(C)CC(C)(Cc1ccccc1)NC(=O)c1cc2cccc(F)c2nc1Cl (stereo not drawn) [Compound E-106, N-(1-benzyl-1,3-dimethyl-butyl)-2-chloro-8-fluoro-quinoline-3-carboxamide] | ≥ 80 | ≥ 80 | ≥ 80 | ≥ 80 |  | 106 to 108
Cc1c(F)ccc2cc(C(=O)NC(C)(Cc3ccccc3)CC(F)(F)F)cnc12 (stereo not drawn) [Compound E-100, N-(1-benzyl-3,3,3-trifluoro-1-methyl-propyl)-7-fluoro-8-methyl-quinoline-3-carboxamide] | ≥ 80 | ≥ 80 | ≥ 80 | ≥ 80 |  | 127 to 129
CC(Cc1ccccc1F)(CC(F)(F)F)NC(=O)c1cnc2c(F)cccc2c1 (stereo not drawn) [Compound E-98, 8-fluoro-N-[3,3,3-trifluoro-1-[(2-fluorophenyl)methyl]-1-methyl-propyl]quinoline-3-carboxamide] | ≥ 80 | ≥ 80 | ≥ 80 | ≥ 80 |  | 131 to 133
CCC(Cc1ccccc1)(CC(F)(F)F)NC(=O)c1cnc2c(F)cccc2c1 (stereo not drawn) [Compound E-101, N-(1-benzyl-1-ethyl-3,3,3-trifluoro-propyl)-8-fluoro-quinoline-3-carboxamide] | ≥ 80 | ≥ 80 | ≥ 80 | ≥ 80 |  | 127 to 129
CC(Cc1ccccc1)(CC(F)(F)F)NC(=O)c1cnc2c(Cl)c(F)ccc2c1 (stereo not drawn) [Compound E-93, N-(1-benzyl-3,3,3-trifluoro-1-methyl-propyl)-8-chloro-7-fluoro-quinoline-3-carboxamide] | ≥ 80 | ≥ 80 | ≥ 80 | ≥ 80 |  | 150 to 152
C/C=C/C(C)(Cc1ccccc1)NC(=O)c1cnc2ccccc2c1 (stereo not drawn) [Compound E-88, N-[(E)-1-benzyl-1-methyl-but-2-enyl]quinoline-3-carboxamide] |  | ≥ 80 | ≥ 80 | ≥ 80 | ≥ 80 | 
CON=CC(C)(Cc1ccccc1)NC(=O)c1cnc2c(F)cccc2c1 (stereo not drawn) [Compound E-117, N-(1-benzyl-2-methoxyimino-1-methyl-ethyl)-8-fluoro-quinoline-3-carboxamide] |  | ≥ 80 | ≥ 80 |  | ≥ 80 | 
